Results taken from ChEMBL document CHEMBL1131493, “Inhibitors of farnesyl protein transferase. 4-Amido, 4-carbamoyl, and 4-carboxamido derivatives of 1-(8-chloro-6,11-dihydro-5H-benzo[5,6]- cyclohepta[1,2-b]pyridin-11-yl)piperazine and 1-(3-bromo-8-chloro-6,11- dihydro-5H-benzo[5,6]cyclohepta[1,2-b]pyridin-11-yl)piperazine” (J Med Chem, 1998).

Experiments:
[1] = target: T1, Protein farnesyltransferase (Homo sapiens, UniProt P49354+P49356); assay: In vitro inhibition of farnesyltransferase farnesylation of the H-ras oncogene; assay type: protein-complex assay; set-up: Inhibition: concentration or dose not given beside the values
[2] = target: T1, Protein farnesyltransferase; assay: Inhibition of Farnesyltransferase from Ras-CVLS or Ras-CVLL in Cos-7 monkey kidney cells; assay type: cell-based, Chlorocebus aethiops

Structure (SMILES) | IC50 [1] | IC50 [2] | Inhibition [1]
C[C@H](N)C(=O)N1CCC(CC(=O)N2CCN(C3c4ccc(Cl)cc4CCc4cccnc43)CC2)CC1 (stereo partly specified) | 2500 nM |  | 
O=C(Nc1cc[n+]([O-])cc1)N1CCN(C2c3ccc(Cl)cc3CCc3cc(Br)cnc32)CC1 (stereo unspecified) | 210 nM | 5800 nM | 
O=C(Nc1cccnc1)N1CCN([C@H]2c3ccc(Cl)cc3CCc3cccnc32)CC1 | 460 nM | 7300 nM | 
CC(C)(C(=O)N1CCN(C2c3ccc(Cl)cc3CCc3cccnc32)CC1)c1cccnc1 (stereo unspecified) |  | 6100 nM | 
O=C(Cc1cccnc1)N1CCN(C(=O)c2ccc(Cl)cc2)CC1 |  |  | 32%
CN1CCC(OC(=O)N2CCN(C3c4ccc(Cl)cc4CCc4cc(Br)cnc43)CC2)CC1 (stereo unspecified) | 310 nM | > 5000 nM | 
Clc1ccc2c(c1)CCc1cccnc1C2N1CCN(CCc2cccnc2)CC1 (stereo unspecified) |  |  | 23%
O=C(Cc1cccnc1)N1CCN(C(c2ccncc2)c2ccc(Cl)cc2)CC1 (stereo unspecified) | 48000 nM |  | 
O=C(Cc1cc[n+]([O-])cc1)N1CCN(C2c3ccc(Cl)cc3CCc3cccnc32)CC1 (stereo unspecified) | 740 nM |  | 
Clc1ccc2c(c1)CCc1cccnc1C2N1CCNCC1 (stereo unspecified) | 30300 nM |  | 
O=C(Cc1ccc[n+]([O-])c1)N1CCN(C2c3ccc(Cl)cc3CCc3ccc[n+]([O-])c32)CC1 (stereo unspecified) | 3800 nM | > 20000 nM | 
CN1CCCC(C(=O)N2CCN(C3c4ccc(Cl)cc4CCc4cccnc43)CC2)C1 (stereo unspecified) | 6800 nM |  | 
O=C(Oc1ccccc1)N1CCN(C2c3ccc(Cl)cc3C=Cc3cccnc32)CC1 (stereo unspecified) | 880 nM |  | 
O=C(Cc1ccccc1)N1CCN(C2c3ccc(Cl)cc3CCc3cccnc32)CC1 (stereo unspecified) |  | 12000 nM | 
O=C(Oc1ccc[n+]([O-])c1)N1CCN(C2c3ccc(Cl)cc3CCc3cccnc32)CC1 (stereo unspecified) | 3100 nM |  | 
CC(=O)N1CCC(CC(=O)N2CCN([C@H]3c4ccc(Cl)cc4CCc4cccnc43)CC2)CC1 | 1600 nM | 6200 nM | 
CC(C)(C(=O)N1CCN(C2c3ccc(Cl)cc3CCc3cc(Br)cnc32)CC1)c1cccnc1 (stereo unspecified) | 300 nM | 900 nM | 
O=C(Cc1ccncc1)NCCNC1c2ccc(Cl)cc2CCc2cccnc21 (stereo unspecified) | 25800 nM |  | 
CC(C)(C(=O)N1CCN(C2c3ccc(Cl)cc3CCc3cccnc32)CC1)c1ccc[n+]([O-])c1 (stereo unspecified) | 1260 nM |  | 
COCC[C@H]1CN(C2c3ccc(Cl)cc3CCc3cc(Br)cnc32)CCN1C(=O)CC1CCNCC1 (stereo partly specified) | 69 nM |  | 

Structure (SMILES) | IC50 [1] | IC50 [2] | Inhibition [1]
O=C(c1cccc2cccnc12)N1CCN(C2c3ccc(Cl)cc3CCc3cc(Br)cnc32)CC1 (stereo unspecified) | 1800 nM |  | 
CC(=O)N1CCC(C(=O)N2CCN([C@@H]3c4ccc(Cl)cc4CCc4cccnc43)CC2)CC1 | 4100 nM |  | 
CC(=O)N1CCC(CC(=O)N2CCN([C@@H]3c4ccc(Cl)cc4CCc4cccnc43)CC2)CC1 | 3500 nM |  | 
O=C(CC1CCNCC1)N1CCN([C@@H]2c3ccc(Cl)cc3CCc3cc(Br)cnc32)CC1 | 87 nM | 560 nM | 
O=C(Nc1ccc[n+]([O-])c1)N1CCN(C2c3ccc(Cl)cc3CCc3cc(Br)cnc32)CC1 (stereo unspecified) | 240 nM | 3600 nM | 
CNC(=O)N1CCC(CC(=O)N2CCN(C3c4ccc(Cl)cc4CCc4cccnc43)CC2)CC1 (stereo unspecified) | 1050 nM |  | 
CC(=O)N1CCC(C(=O)N2CCN([C@H]3c4ccc(Cl)cc4CCc4cccnc43)CC2)CC1 | 1800 nM | 6500 nM | 
NC(=O)N1CCCc2c(C(=O)N3CCN(C4c5ccc(Cl)cc5CCc5cc(Br)cnc54)CC3)cccc21 (stereo unspecified) |  |  | 45%
N[C@@H](CS)C(=O)N1CCN(C2c3ccc(Cl)cc3CCc3cc(Br)cnc32)CC1 (stereo partly specified) | 2100 nM |  | 
CN1CCCC(OC(=O)N2CCN(C3c4ccc(Cl)cc4CCc4cc(Br)cnc43)CC2)C1 (stereo unspecified) | 300 nM |  | 
CCCC[C@H]1CN(C2c3ccc(Cl)cc3CCc3cc(Br)cnc32)CCN1C(=O)CC1CCN(C(N)=O)CC1 (stereo partly specified) | 27 nM | 600 nM | 
CC(C)(C)OC(=O)N1CCC(CC(=O)N2CCN(C3c4ccc(Cl)cc4CCc4cc(Br)cnc43)CC2)CC1 (stereo unspecified) | 1290 nM |  | 
O=C(Oc1cccnc1)N1CCN([C@H]2c3ccc(Cl)cc3CCc3cccnc32)CC1 | 820 nM | 3900 nM | 
NC(=O)N1CCCC2C(C(=O)N3CCN(C4c5ccc(Cl)cc5CCc5cc(Br)cnc54)CC3)CCCC21 (stereo unspecified) | 1400 nM |  | 
CC(C)(C(=O)N1CCN(C2c3ccc(Cl)cc3CCc3cc(Br)cnc32)CC1)c1cc[n+]([O-])cc1 (stereo unspecified) | 390 nM | 5000 nM | 
O=C(Oc1ccccc1)N1CCN(C2c3ccc(Cl)cc3CCc3cccnc32)CC1 (stereo unspecified) | 800 nM |  | 
CN1CCCC(CC(=O)N2CCN([C@H]3c4ccc(Cl)cc4CCc4cccnc43)CC2)C1 (stereo partly specified) | 600 nM |  | 
O=C(CC1CCNCC1)N1CCN(C2c3ccc(Cl)cc3C=Cc3cc(Br)cnc32)CC1 (stereo unspecified) | 83 nM |  | 
O=C(C1CCCC2NCCCC21)N1CCN(C2c3ccc(Cl)cc3CCc3cc(Br)cnc32)CC1 (stereo unspecified) |  |  | 23%
CC(C)(C(=O)N1CCN(C2c3ccc(Cl)cc3CCc3cccnc32)CC1)c1ccncc1 (stereo unspecified) | 1740 nM |  | 

Structure (SMILES) | IC50 [1] | IC50 [2] | Inhibition [1]
CN1CCCC(NC(=O)N2CCN(C3c4ccc(Cl)cc4CCc4cc(Br)cnc43)CC2)C1 (stereo unspecified) | 54 nM |  | 
O=C(N1CCN(C2c3ccc(Cl)cc3CCc3cc(Br)cnc32)CC1)n1ccnc1 (stereo unspecified) | 1770 nM |  | 
N[C@@H](CS)C(=O)N1CCC(CC(=O)N2CCN(C3c4ccc(Cl)cc4CCc4cc(Br)cnc43)CC2)CC1 (stereo partly specified) | 230 nM |  | 
CN1CCC(CC(=O)N2CCN([C@@H]3c4ccc(Cl)cc4CCc4cccnc43)CC2)CC1 | 1800 nM |  | 
O=C(c1cccc2ncccc12)N1CCN(C2c3ccc(Cl)cc3CCc3cccnc32)CC1 (stereo unspecified) |  |  | 15%
COC(=O)N1CCC(CC(=O)N2CCN(C3c4ccc(Cl)cc4CCc4cccnc43)CC2)CC1 (stereo unspecified) | 1300 nM |  | 
NC(=O)N1CCC(CC(=O)N2CCN(C3c4ccc(Cl)cc4C=Cc4cc(Br)cnc43)CC2)CC1 (stereo unspecified) | 45 nM |  | 
O=C(Nc1cccnc1)N1CCN([C@@H]2c3ccc(Cl)cc3CCc3cccnc32)CC1 | 3200 nM |  | 
CC(C)(C)OC(=O)N1CCC(C(=O)N2CCN(C3c4ccc(Cl)cc4CCc4cccnc43)CC2)CC1 (stereo unspecified) |  |  | 20%
CSCC[C@H](N)C(=O)N1CCC(CC(=O)N2CCN(C3c4ccc(Cl)cc4CCc4cccnc43)CC2)CC1 (stereo partly specified) | 1890 nM |  | 
CCN1CCC(CC(=O)N2CCN(C3c4ccc(Cl)cc4CCc4cccnc43)CC2)CC1 (stereo unspecified) | 1270 nM |  | 
O=C(Cc1cc[n+]([O-])cc1)N1CCN(C2c3ccc(Cl)cc3CCc3c(Cl)ccnc32)CC1 (stereo unspecified) | 330 nM |  | 
CN1CCC(CC(=O)N2CCN([C@H]3c4ccc(Cl)cc4CCc4cccnc43)CC2)CC1 | 640 nM |  | 
O=C(CC1CCNCC1)N1CCN([C@H]2c3ccc(Cl)cc3CCc3cc(Br)cnc32)CC1 | 78 nM |  | 
CC(C)(C)NC(=O)N1CCC(CC(=O)N2CCN(C3c4ccc(Cl)cc4CCc4cc(Br)cnc43)CC2)CC1 (stereo unspecified) | 108 nM |  | 
CN1CCCC(CC(=O)N2CCN([C@@H]3c4ccc(Cl)cc4CCc4cccnc43)CC2)C1 (stereo partly specified) | 700 nM |  | 
O=C(c1cccc2c1ccc[n+]2[O-])N1CCN(C2c3ccc(Cl)cc3CCc3cc(Br)cnc32)CC1 (stereo unspecified) |  |  | 38%
N[C@@H](CS)CN1CCN(C2c3ccc(Cl)cc3CCc3cc(Br)cnc32)CC1 (stereo partly specified) |  |  | 19%
O=C(c1cccc2ncccc12)N1CCN(C2c3ccc(Cl)cc3CCc3cc(Br)cnc32)CC1 (stereo unspecified) |  |  | 38%

Now from value to compound:

IC50 [1] | IC50 [2] | Inhibition [1] | Structure (SMILES)
11300 nM |  |  | O=C(C1CCNCC1)N1CCN(C2c3ccc(Cl)cc3CCc3cccnc32)CC1 (stereo unspecified)
2100 nM |  |  | CN1CCCC(OC(=O)N2CCN(C3c4ccc(Cl)cc4CCc4cccnc43)CC2)C1 (stereo unspecified)
1100 nM |  |  | O=C(CC1CCCNC1)N1CCN(C2c3ccc(Cl)cc3CCc3cccnc32)CC1 (stereo unspecified)
880 nM |  |  | CCCNC(=O)N1CCC(CC(=O)N2CCN(C3c4ccc(Cl)cc4CCc4cccnc43)CC2)CC1 (stereo unspecified)
4300 nM |  |  | CC(=O)N1CCCC(C(=O)N2CCN(C3c4ccc(Cl)cc4CCc4cccnc43)CC2)C1 (stereo unspecified)
7400 nM |  |  | CC(C)(C)OC(=O)N1CCC(CC(=O)N2CCN(C3c4ccc(Cl)cc4CCc4cccnc43)CC2)CC1 (stereo unspecified)
1750 nM |  |  | NC(=O)N1CCCC(CC(=O)N2CCN(C3c4ccc(Cl)cc4CCc4cccnc43)CC2)C1 (stereo unspecified)
1250 nM |  |  | O=C(CC1CCNCC1)N1CCN(C2c3ccc(Cl)cc3CCc3cccnc32)CC1 (stereo unspecified)
7000 nM |  |  | CNC(=O)N1CCC[C@@H](CC(=O)N2CCN(C3c4ccc(Cl)cc4CCc4cccnc43)CC2)C1 (stereo partly specified)
4800 nM |  |  | CC(C)(C)OC(=O)NCC(=O)N1CCN(C2c3ccc(Cl)cc3CCc3cccnc32)CC1 (stereo unspecified)
4900 nM |  |  | CC(C(=O)N1CCN(C2c3ccc(Cl)cc3CCc3cccnc32)CC1)c1cccnc1 (stereo unspecified)
1000 nM |  |  | CC(C)(C)NC(=O)N1CCC(CC(=O)N2CCN(C3c4ccc(Cl)cc4CCc4cccnc43)CC2)CC1 (stereo unspecified)
470 nM |  |  | CN1CCC(NC(=O)N2CCN(C3c4ccc(Cl)cc4CCc4cccnc43)CC2)CC1 (stereo unspecified)
920 nM |  |  | CCNC(=O)N1CCC(CC(=O)N2CCN(C3c4ccc(Cl)cc4CCc4cccnc43)CC2)CC1 (stereo unspecified)
1100 nM |  |  | N[C@@H](CO)C(=O)N1CCC(CC(=O)N2CCN(C3c4ccc(Cl)cc4CCc4cccnc43)CC2)CC1 (stereo partly specified)
2200 nM |  |  | O=C(Nc1ccc[n+]([O-])c1)N1CCN(C2c3ccc(Cl)cc3CCc3cccnc32)CC1 (stereo unspecified)
1800 nM |  |  | O=C(Nc1cc[n+]([O-])cc1)N1CCN(C2c3ccc(Cl)cc3CCc3cccnc32)CC1 (stereo unspecified)
9800 nM |  |  | O=C(N1CCN(C2c3ccc(Cl)cc3CCc3cccnc32)CC1)n1ccnc1 (stereo unspecified)
3100 nM |  |  | CC(=O)N1CCCC(CC(=O)N2CCN(C3c4ccc(Cl)cc4CCc4cccnc43)CC2)C1 (stereo unspecified)
880 nM |  |  | CNC(=S)N1CCC(CC(=O)N2CCN(C3c4ccc(Cl)cc4CCc4cccnc43)CC2)CC1 (stereo unspecified)
 |  | 35% | CN1CCC(OC(=O)N2CCN(C3c4ccc(Cl)cc4CCc4cccnc43)CC2)CC1 (stereo unspecified)
2200 nM |  |  | CC(C)(C(=O)N1CCN(C2c3ccc(Cl)cc3CCc3cccnc32)CC1)c1cc[n+]([O-])cc1 (stereo unspecified)
20200 nM |  |  | CN(C)c1ccc(C(=O)N2CCN(C3c4ccc(Cl)cc4CCc4cccnc43)CC2)cc1 (stereo unspecified)
2500 nM |  |  | NCNC(=O)N1CCC(CC(=O)N2CCN(C3c4ccc(Cl)cc4CCc4cccnc43)CC2)CC1 (stereo unspecified)
820 nM |  |  | NC(=O)N1CCC(CC(=O)N2CCN(C3c4ccc(Cl)cc4CCc4cccnc43)CC2)CC1 (stereo unspecified)
4100 nM |  |  | O=C(NCc1ccccc1)N1CCN(C2c3ccc(Cl)cc3CCc3cccnc32)CC1 (stereo unspecified)
660 nM |  |  | CN1CCCC(NC(=O)N2CCN(C3c4ccc(Cl)cc4CCc4cccnc43)CC2)C1 (stereo unspecified)
7000 nM |  |  | COC(=O)N1CCCC(CC(=O)N2CCN(C3c4ccc(Cl)cc4CCc4cccnc43)CC2)C1 (stereo unspecified)
2780 nM |  |  | CC(S)C(=O)NCC(=O)N1CCN(C2c3ccc(Cl)cc3CCc3cccnc32)CC1 (stereo unspecified)
3300 nM |  |  | CC(C)(C(=O)N1CCN(C2c3ccc(Cl)cc3CCc3cccnc32)CC1)c1ccccc1 (stereo unspecified)
